ChEMBL document CHEMBL1681684, “Structure based design of heat shock protein 90 inhibitors acting as anticancer agents” (Bioorg Med Chem, 2011)
pIC50: −log10 of the molar value.

Each compound was assayed on A549 (assay: Anticancer activity against human A549 cells assessed as growth inhibition at 100 uM by MTT assay).
Type: functional

SMILES	inhibition at 100 µM [%]
Oc1ccc(C2=Nc3ccccc3S[C@H](c3ccccc3)C2)cc1	55.8
O=S(=O)(Nc1ccccc1Oc1ccc(Cl)cc1Cl)c1ccccc1	55
O[C@H]1CCN(c2nc(Nc3cccc4c3CCCC4)c3ccccc3n2)C1	88.8
O=[N+]([O-])c1cccnc1Sc1ccccc1NS(=O)(=O)c1ccc(Cl)cc1Cl	47.9
O=S(=O)(NCCC(c1ccccc1)c1ccccc1)c1ccc(Cl)cc1	65.7
C[C@H](Nc1nc(N2CCNCC2)nc2ccccc12)c1ccccc1	90.2
CCC(C)(C)c1ccc(O)c(NS(=O)(=O)c2ccccc2OC(F)(F)F)c1	50.9
COc1ccccc1N/N=C1/C(=O)N(C(N)=S)N=C1c1ccccc1	51.9
COc1cc(C2N(c3ccc(C)cc3)CCN2c2ccc(C)cc2)ccc1O	51.9

What follows are compounds tested on DU-145 (assay: Anticancer activity against human DU145 cells assessed as growth inhibition at 100 uM by MTT assay).
Type: functional

SMILES	inhibition at 100 µM [%]
Oc1ccc(C2=Nc3ccccc3S[C@H](c3ccccc3)C2)cc1	59.9
O=S(=O)(Nc1ccccc1Oc1ccc(Cl)cc1Cl)c1ccccc1	52.6
O[C@H]1CCN(c2nc(Nc3cccc4c3CCCC4)c3ccccc3n2)C1	88.7
O=[N+]([O-])c1cccnc1Sc1ccccc1NS(=O)(=O)c1ccc(Cl)cc1Cl	54.5
O=S(=O)(NCCC(c1ccccc1)c1ccccc1)c1ccc(Cl)cc1	73.5
C[C@H](Nc1nc(N2CCNCC2)nc2ccccc12)c1ccccc1	87.2
CCC(C)(C)c1ccc(O)c(NS(=O)(=O)c2ccccc2OC(F)(F)F)c1	60.1
COc1ccccc1N/N=C1/C(=O)N(C(N)=S)N=C1c1ccccc1	48
COc1cc(C2N(c3ccc(C)cc3)CCN2c2ccc(C)cc2)ccc1O	40.7

Each compound was assayed on HT-29 (assay: Anticancer activity against human HT-29 cells assessed as growth inhibition at 100 uM by MTT assay).
Type: functional

SMILES	inhibition at 100 µM [%]
Oc1ccc(C2=Nc3ccccc3S[C@H](c3ccccc3)C2)cc1	67.9
O=S(=O)(Nc1ccccc1Oc1ccc(Cl)cc1Cl)c1ccccc1	51.1
O[C@H]1CCN(c2nc(Nc3cccc4c3CCCC4)c3ccccc3n2)C1	86.1
O=[N+]([O-])c1cccnc1Sc1ccccc1NS(=O)(=O)c1ccc(Cl)cc1Cl	44.6
O=S(=O)(NCCC(c1ccccc1)c1ccccc1)c1ccc(Cl)cc1	87.5
C[C@H](Nc1nc(N2CCNCC2)nc2ccccc12)c1ccccc1	86.5
CCC(C)(C)c1ccc(O)c(NS(=O)(=O)c2ccccc2OC(F)(F)F)c1	37.5
COc1ccccc1N/N=C1/C(=O)N(C(N)=S)N=C1c1ccccc1	38
COc1cc(C2N(c3ccc(C)cc3)CCN2c2ccc(C)cc2)ccc1O	64.8

These compounds were tested on SK-MEL-2 (assay: Anticancer activity against human SK-MEL-2 cells assessed as growth inhibition at 100 uM by MTT assay).
Type: functional

SMILES	inhibition at 100 µM [%]
Oc1ccc(C2=Nc3ccccc3S[C@H](c3ccccc3)C2)cc1	57.1
O=S(=O)(Nc1ccccc1Oc1ccc(Cl)cc1Cl)c1ccccc1	43.9
O[C@H]1CCN(c2nc(Nc3cccc4c3CCCC4)c3ccccc3n2)C1	79.5
O=[N+]([O-])c1cccnc1Sc1ccccc1NS(=O)(=O)c1ccc(Cl)cc1Cl	40.1
O=S(=O)(NCCC(c1ccccc1)c1ccccc1)c1ccc(Cl)cc1	77.8
C[C@H](Nc1nc(N2CCNCC2)nc2ccccc12)c1ccccc1	85.6
CCC(C)(C)c1ccc(O)c(NS(=O)(=O)c2ccccc2OC(F)(F)F)c1	52.4
COc1ccccc1N/N=C1/C(=O)N(C(N)=S)N=C1c1ccccc1	61
COc1cc(C2N(c3ccc(C)cc3)CCN2c2ccc(C)cc2)ccc1O	58.3

Each compound was assayed on SK-OV-3 (assay: Anticancer activity against human SKOV3 cells assessed as growth inhibition at 100 uM by MTT assay).
Type: functional

SMILES	inhibition at 100 µM [%]
Oc1ccc(C2=Nc3ccccc3S[C@H](c3ccccc3)C2)cc1	51.6
O=S(=O)(Nc1ccccc1Oc1ccc(Cl)cc1Cl)c1ccccc1	40.1
O[C@H]1CCN(c2nc(Nc3cccc4c3CCCC4)c3ccccc3n2)C1	89.5
O=[N+]([O-])c1cccnc1Sc1ccccc1NS(=O)(=O)c1ccc(Cl)cc1Cl	44
O=S(=O)(NCCC(c1ccccc1)c1ccccc1)c1ccc(Cl)cc1	62
C[C@H](Nc1nc(N2CCNCC2)nc2ccccc12)c1ccccc1	86.6
CCC(C)(C)c1ccc(O)c(NS(=O)(=O)c2ccccc2OC(F)(F)F)c1	46.4
COc1ccccc1N/N=C1/C(=O)N(C(N)=S)N=C1c1ccccc1	45.5
COc1cc(C2N(c3ccc(C)cc3)CCN2c2ccc(C)cc2)ccc1O	34.3

The compounds below were run on A549 (assay: Anticancer activity against human A549 cells by MTT assay).
Type: functional, cell-based

SMILES	pIC50
Oc1ccc(C2=Nc3ccccc3S[C@H](c3ccccc3)C2)cc1	4.48
O=S(=O)(Nc1ccccc1Oc1ccc(Cl)cc1Cl)c1ccccc1	4.45
O[C@H]1CCN(c2nc(Nc3cccc4c3CCCC4)c3ccccc3n2)C1	4.89
O=[N+]([O-])c1cccnc1Sc1ccccc1NS(=O)(=O)c1ccc(Cl)cc1Cl	4.59
O=S(=O)(NCCC(c1ccccc1)c1ccccc1)c1ccc(Cl)cc1	4.51
C[C@H](Nc1nc(N2CCNCC2)nc2ccccc12)c1ccccc1	4.88
CCC(C)(C)c1ccc(O)c(NS(=O)(=O)c2ccccc2OC(F)(F)F)c1	4.41
COc1ccccc1N/N=C1/C(=O)N(C(N)=S)N=C1c1ccccc1	4.35
COc1cc(C2N(c3ccc(C)cc3)CCN2c2ccc(C)cc2)ccc1O	4.56

The compounds below were run on DU-145 (assay: Anticancer activity against human DU145 cells by MTT assay).
Type: functional, cell-based

SMILES	pIC50
Oc1ccc(C2=Nc3ccccc3S[C@H](c3ccccc3)C2)cc1	4.51
O=S(=O)(Nc1ccccc1Oc1ccc(Cl)cc1Cl)c1ccccc1	4.36
O[C@H]1CCN(c2nc(Nc3cccc4c3CCCC4)c3ccccc3n2)C1	4.77
O=[N+]([O-])c1cccnc1Sc1ccccc1NS(=O)(=O)c1ccc(Cl)cc1Cl	4.27
O=S(=O)(NCCC(c1ccccc1)c1ccccc1)c1ccc(Cl)cc1	4.58
C[C@H](Nc1nc(N2CCNCC2)nc2ccccc12)c1ccccc1	4.90
CCC(C)(C)c1ccc(O)c(NS(=O)(=O)c2ccccc2OC(F)(F)F)c1	< 4.00
COc1ccccc1N/N=C1/C(=O)N(C(N)=S)N=C1c1ccccc1	4.33
COc1cc(C2N(c3ccc(C)cc3)CCN2c2ccc(C)cc2)ccc1O	4.37

These compounds were tested on HT-29 (assay: Anticancer activity against human HT-29 cells by MTT assay).
Type: functional, cell-based

SMILES	pIC50
Oc1ccc(C2=Nc3ccccc3S[C@H](c3ccccc3)C2)cc1	4.39
O=S(=O)(Nc1ccccc1Oc1ccc(Cl)cc1Cl)c1ccccc1	4.19
O[C@H]1CCN(c2nc(Nc3cccc4c3CCCC4)c3ccccc3n2)C1	5.15
O=[N+]([O-])c1cccnc1Sc1ccccc1NS(=O)(=O)c1ccc(Cl)cc1Cl	4.20
O=S(=O)(NCCC(c1ccccc1)c1ccccc1)c1ccc(Cl)cc1	4.73
C[C@H](Nc1nc(N2CCNCC2)nc2ccccc12)c1ccccc1	5.39
CCC(C)(C)c1ccc(O)c(NS(=O)(=O)c2ccccc2OC(F)(F)F)c1	4.62
COc1ccccc1N/N=C1/C(=O)N(C(N)=S)N=C1c1ccccc1	4.31
COc1cc(C2N(c3ccc(C)cc3)CCN2c2ccc(C)cc2)ccc1O	4.56

These compounds were tested on SK-MEL-2 (assay: Anticancer activity against human SK-MEL-2 cells by MTT assay).
Type: functional, cell-based

SMILES	pIC50
Oc1ccc(C2=Nc3ccccc3S[C@H](c3ccccc3)C2)cc1	4.33
O=S(=O)(Nc1ccccc1Oc1ccc(Cl)cc1Cl)c1ccccc1	4.35
O[C@H]1CCN(c2nc(Nc3cccc4c3CCCC4)c3ccccc3n2)C1	4.80
O=[N+]([O-])c1cccnc1Sc1ccccc1NS(=O)(=O)c1ccc(Cl)cc1Cl	4.37
O=S(=O)(NCCC(c1ccccc1)c1ccccc1)c1ccc(Cl)cc1	4.72
C[C@H](Nc1nc(N2CCNCC2)nc2ccccc12)c1ccccc1	5.29
CCC(C)(C)c1ccc(O)c(NS(=O)(=O)c2ccccc2OC(F)(F)F)c1	4.27
COc1ccccc1N/N=C1/C(=O)N(C(N)=S)N=C1c1ccccc1	4.46
COc1cc(C2N(c3ccc(C)cc3)CCN2c2ccc(C)cc2)ccc1O	4.48

What follows are compounds tested on SK-OV-3 (assay: Anticancer activity against human SKOV3 cells by MTT assay).
Type: functional, cell-based

SMILES	pIC50
Oc1ccc(C2=Nc3ccccc3S[C@H](c3ccccc3)C2)cc1	4.21
O=S(=O)(Nc1ccccc1Oc1ccc(Cl)cc1Cl)c1ccccc1	< 4.00
O[C@H]1CCN(c2nc(Nc3cccc4c3CCCC4)c3ccccc3n2)C1	4.77
O=[N+]([O-])c1cccnc1Sc1ccccc1NS(=O)(=O)c1ccc(Cl)cc1Cl	4.16
O=S(=O)(NCCC(c1ccccc1)c1ccccc1)c1ccc(Cl)cc1	4.46
C[C@H](Nc1nc(N2CCNCC2)nc2ccccc12)c1ccccc1	4.84
CCC(C)(C)c1ccc(O)c(NS(=O)(=O)c2ccccc2OC(F)(F)F)c1	4.41
COc1ccccc1N/N=C1/C(=O)N(C(N)=S)N=C1c1ccccc1	4.12
COc1cc(C2N(c3ccc(C)cc3)CCN2c2ccc(C)cc2)ccc1O	< 4.00
